# pIC50: −log10 of the molar value. Read-outs that look alike come from different tables or passages of the source.
# Columns and labels:
# androgen receptor (AR) = biological target: T1, androgen receptor (AR) (Homo sapiens, UniProt P10275, T878A); assay: Degradation activity on androgen receptor in LNCaP cells (AR ELISA); type: cell-based; details: for Dmax: read-out: Max (maximum AR degradation rate)
# T1 construct: host or cells: LNCaP human prostate cancer cells
# T1 sequence (P10275 1-920 T878A): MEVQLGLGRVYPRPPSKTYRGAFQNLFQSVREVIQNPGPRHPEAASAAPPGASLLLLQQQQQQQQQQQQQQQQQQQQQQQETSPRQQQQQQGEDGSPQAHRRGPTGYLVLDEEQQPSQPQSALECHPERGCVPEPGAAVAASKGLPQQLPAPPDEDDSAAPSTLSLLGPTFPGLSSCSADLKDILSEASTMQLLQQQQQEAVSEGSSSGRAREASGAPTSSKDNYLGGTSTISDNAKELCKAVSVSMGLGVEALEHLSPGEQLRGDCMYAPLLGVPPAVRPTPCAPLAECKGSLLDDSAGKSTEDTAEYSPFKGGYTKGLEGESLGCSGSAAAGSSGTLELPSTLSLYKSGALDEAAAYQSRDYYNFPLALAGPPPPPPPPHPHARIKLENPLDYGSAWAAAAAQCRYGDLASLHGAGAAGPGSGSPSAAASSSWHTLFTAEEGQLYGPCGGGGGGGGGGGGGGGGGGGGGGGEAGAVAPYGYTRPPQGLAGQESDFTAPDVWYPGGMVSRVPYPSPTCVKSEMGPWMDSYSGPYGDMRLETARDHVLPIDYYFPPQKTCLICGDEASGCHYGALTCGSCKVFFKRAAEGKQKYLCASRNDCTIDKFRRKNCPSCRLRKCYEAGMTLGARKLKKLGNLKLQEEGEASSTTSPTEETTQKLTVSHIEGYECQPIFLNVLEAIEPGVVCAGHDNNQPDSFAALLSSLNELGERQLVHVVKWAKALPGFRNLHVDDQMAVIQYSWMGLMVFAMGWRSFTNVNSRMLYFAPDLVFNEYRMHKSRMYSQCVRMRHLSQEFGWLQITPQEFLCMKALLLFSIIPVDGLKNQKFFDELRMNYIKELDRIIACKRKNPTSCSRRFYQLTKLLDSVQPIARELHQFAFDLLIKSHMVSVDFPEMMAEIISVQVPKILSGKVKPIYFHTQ
# Protocol: The plate was incubated in a 37° C., 5% CO2 cell incubator for three days. […] A blank control cell well containing 0.5% DMSO was set up. The plate was incubated in a 37° C., 5% CO2 cell incubator for 24 hours. […] The lysate was well mixed by pipetting up and down and then centrifuged at 4000 rpm at 4° C. for 10 minutes. […] The plate was sealed and incubated in a 37° C. incubator for 1 hour. […] The plate was sealed and then incubated in a 37° C. incubator for 30 minutes.
# LNCaP cells = assay: Inhibition of LNCaP proliferation (CellTiter-Glo); type: cell-based; details: Homo sapiens, 144 h, 0.1 nM R1881, six days; for Emax: read-out: Max (maximum proliferation inhibition rate)
# Protocol: The plate was incubated in a 37° C., 5% CO2 cell incubator for three days. […] A blank control cell well containing 0.5% DMSO and a cell-free vehicle control well were set up. The plate was incubated in a 37° C., 5% CO2 cell incubator for six days.
# [1] = Pharmacokinetic evaluation in SD rats; details: both sexes, rat, in vivo, po, i.g., 2.0 mg/kg; for Vd/F: read-out: Apparent distribution volume Vz/F; for AUC(0-t): read-out: Area under curve AUC0-t; for CL/F: read-out: Clearance rate CL/F; for half-life: read-out: Half-life T½ (converted); for Cmax: read-out: Plasma concentration Cmax
# Protocol: SD rats were used as test animals.
# 32 SD rats, provided by Vital River Laboratory Animal Co., Ltd., with an equal number of males and females, were evenly divided into 8 groups. The animals were fasted overnight and then intragastrically dosed.
# The dose administered was 2.0 mg/kg, and the volume was 10.0 mL/kg.
# The procedure starting from the blood collection to the centrifugation was performed under ice-bath conditions. Access to food was given 2 hours after administration.
# [2] = 0.1 nM R1881, 24 hours, read-out: LNCaP DC50
# [3] = read-out: LNCaP DC50, 0.1 nM R1881, 24 hours
Compound,DC50 (androgen receptor (AR); [2]),"Dmax (androgen receptor (AR); 0.1 nM R1881, 24 hours)",pIC50 (LNCaP cells),Emax (LNCaP cells),Vd/F [1],AUC(0-t) [1],CL/F [1],half-life [1],Cmax [1],DC50 (androgen receptor (AR); [3])
"C[C@H]1CC2(CCN(c3ccc(C(=O)N4CCC(CN5CCN(c6cc(NC7CCC(=O)NC7=O)ccc6F)CC5)CC4)cc3)CC2)CN1c1ccc(C#N)c(Cl)c1 (stereo partly drawn) [Example 23, 2-Chloro-4-((3S)-8-(4-(4-((4-(5-((2,6-dioxopiperidin-3-yl)amino)-2-fluorophenyl)piperazin-1-yl)methyl)piperidine-1-carbonyl)phenyl)-3-methyl-2,8-diazaspiro[4.5]decan-2-yl)benzonitrile]",0.0061 µM,96%,7.39,76%,26.3 L/kg,703 ng·h/mL,51.2 mL/min/kg,5.93 h,81.6 ng/mL,–
"C[C@H]1CC2(CCN(c3ccc(C(=O)N4CCC(CN5CCN(c6cccc(NC7CCC(=O)NC7=O)c6)CC5)CC4)cc3)CC2)CN1c1ccc(C#N)c(Cl)c1 (stereo partly drawn) [Example 11, 2-Chloro-4-((3S)-8-(4-(4-((4-(3-((2,6-dioxopiperidin-3-yl)amino)phenyl)piperazin-1-yl)methyl)piperidine-1-carbonyl)phenyl)-3-methyl-2,8-diazaspiro[4.5]decan-2-yl)benzonitrile]",0.0073 µM,98%,7.09,68%,34.8 L/kg,644 ng·h/mL,60.2 mL/min/kg,6.75 h,69.4 ng/mL,–
"C[C@H]1CC2(CCN(c3ccc(C(=O)N4CCC(N5CCN(c6ccc(C(=O)NC7CCC(=O)NC7=O)c(F)c6)CC5)CC4)cc3)CC2)CN1c1ccc(C#N)c(Cl)c1 (stereo partly drawn) [Example 1, 4-(4-(1-(4-((S)-2-(3-Chloro-4-cyanophenyl)-3-methyl-2,8-diazaspiro[4.5]decan-8-yl)benzoyl)piperidin-4-yl)piperazin-1-yl)-N-(2,6-dioxopiperidin-3-yl)-2-fluorobenzamide]",–,89%,6.74,63%,–,–,–,–,–,0.0106 µM
"C[C@H]1CC2(CCN(c3ccc(C(=O)N4CCC(CN5CCC(N6CCN(c7ccc(N8CCC(=O)NC8=O)cc7)CC6)CC5)CC4)cc3)CC2)CN1c1ccc(C#N)c(Cl)c1 [Example 9, (S)-2-Chloro-4-(8-(4-(4-((4-(4-(4-(2,4-dioxotetrahydropyrimidin-1(2H)-yl)phenyl)piperazin-1-yl)piperidin-1-yl)methyl)piperidine-1-carbonyl)phenyl)-3-methyl-2,8-diazaspiro[4.5]decan-2-yl)benzonitrile]",0.0129 µM,92%,7.16,59%,–,–,–,–,–,–
"C[C@H]1CC2(CCN(C(=O)c3ccc(SC4CCN(C5CN(c6ccc(C(=O)NC7CCC(=O)NC7=O)c(F)c6)C5)CC4)nc3)CC2)CN1c1ccc(C#N)c(Cl)c1 (stereo partly drawn) [Example 5, 4-(3-(4-((5-((S)-2-(3-Chloro-4-cyanophenyl)-3-methyl-2,8-diazaspiro[4.5]decane-8-carbonyl)pyridin-2-yl)thio)piperidin-1-yl)azetidin-1-yl)-N-(2,6-dioxopiperidin-3-yl)-2-fluorobenzamide]",–,86%,6.72,72%,–,–,–,–,–,0.0305 µM
"C[C@H]1CC2(CCN(c3ccc(C(=O)N4CC(CN5CCC(c6cccc(NC7CCC(=O)NC7=O)c6)CC5)C4)nn3)CC2)CN1c1ccc(C#N)c(Cl)c1 (stereo partly drawn) [Example 21, 2-Chloro-4-((3S)-8-(6-(3-((4-(3-((2,6-dioxopiperidin-3-yl)amino)phenyl)piperidin-1-yl)methyl)azetidine-1-carbonyl)pyridazin-3-yl)-3-methyl-2,8-diazaspiro[4.5]decan-2-yl)benzonitrile]",0.0005 µM,94%,7.80,60%,–,–,–,–,–,–
"C[C@H]1CC2(CCN(c3ccc(C(=O)N4CCC5(CC4)CC(N4CCN(c6ccc(N7CCC(=O)NC7=O)cc6)CC4)C5)cn3)CC2)CN1c1ccc(C#N)c(Cl)c1 [Example 33, (S)-2-Chloro-4-(8-(5-(2-(4-(4-(2,4-dioxotetrahydropyrimidin-1(2H)-yl)phenyl)piperazin-1-yl)-7-azaspiro[3.5]nonane-7-carbonyl)pyridin-2-yl)-3-methyl-2,8-diazaspiro[4.5]decan-2-yl]benzonitrile]",0.0025 µM,95%,8.46,58%,–,–,–,–,–,–
"C[C@H]1CC2(CCN(c3ccc(C(=O)N4CCC(CN5CC(N6CCN(c7ccc(N8CCC(=O)NC8=O)cc7)CC6)C5)CC4)cc3)CC2)CN1c1ccc(C#N)c(Cl)c1 [Example 8, (S)-2-Chloro-4-(8-(4-(4-((3-(4-(4-(2,4-dioxotetrahydropyrimidin-1(2H)-yl)phenyl)piperazin-1-yl)azetidin-1-yl)methyl)piperidine-1-carbonyl)phenyl)-3-methyl-2,8-diazaspiro[4.5]decan-2-yl)benzonitrile]",0.0016 µM,85%,8.01,31%,–,–,–,–,–,–
"C[C@H]1CC2(CCN(c3ccc(C(=O)N4CCC(CN5CCN(c6cccc(NC7CCC(=O)NC7=O)c6)CC5)CC4)nn3)CC2)CN1c1ccc(C#N)c(Cl)c1 (stereo partly drawn) [Example 13, 2-Chloro-4-((3S)-8-(6-(4-((4-(3-((2,6-dioxopiperidin-3-yl)amino)phenyl)piperazin-1-yl)methyl)piperidine-1-carbonyl)pyridazin-3-yl)-3-methyl-2,8-diazaspiro[4.5]decan-2-yl)benzonitrile]",0.0005 µM,96%,6.97,56%,–,–,–,–,–,–
"C[C@H]1CC2(CCN(c3ccc(C(=O)N4CCN(CC5CCN(c6cccc(NC7CCC(=O)NC7=O)c6)CC5)CC4)cc3)CC2)CN1c1ccc(C#N)c(Cl)c1 (stereo partly drawn) [Example 37, 2-Chloro-4-((3S)-8-(4-(4-((1-(3-((2,6-dioxopiperidin-3-yl)amino)phenyl)piperidin-4-yl)methyl)piperazine-1-carbonyl)phenyl)-3-methyl-2,8-diazaspiro[4.5]decan-2-yl)benzonitrile]",0.0076 µM,97%,6.90,73%,–,–,–,–,–,–
"C[C@H]1CC2(CCN(c3ccc(C(=O)N4CCC5(CC4)CC(N4CCN(c6ccc(N7CCC(=O)NC7=O)cc6)CC4)C5)c(F)c3)CC2)CN1c1ccc(C#N)c(Cl)c1 [Example 31, (S)-2-Chloro-4-(8-(4-(2-(4-(4-(2,4-dioxotetrahydropyrimidin-1(2H)-yl)phenyl)piperazin-1-yl)-7-azaspiro[3.5]nonane-7-carbonyl)-3-fluorophenyl)-3-methyl-2,8-diazaspiro[4.5]decan-2-yl)benzonitrile]",0.0087 µM,94%,7.92,57%,–,–,–,–,–,–
"C[C@H]1CC2(CCN(c3ccc(C(=O)N4CCC(CN5CCN(c6ccc(NC7CCC(=O)NC7=O)cc6)CC5)CC4)cc3)CC2)CN1c1ccc(C#N)c(Cl)c1 (stereo partly drawn) [Example 25, 2-Chloro-4-((3S)-8-(4-(4-((4-(4-((2,6-dioxopiperidin-3-yl)amino)phenyl)piperazin-1-yl)methyl)piperidine-1-carbonyl)phenyl)-3-methyl-2,8-diazaspiro[4.5]decan-2-yl)benzonitrile]",0.0018 µM,96%,7.62,60%,–,–,–,–,–,–

# Reference: patent publication US20250129074A1, “CHIMERIC COMPOUND FOR TARGETED DEGRADATION OF ANDROGEN RECEPTOR PROTEIN, PREPARATION METHOD THEREFOR, AND MEDICAL USE THEREOF” (Jiangsu Hengrui Pharmaceuticals Co., Ltd., priority 2021, published 2025)
